≈ marks a conversion by molar mass, not a printed value.
Assays:
[1] = pH-dependent solubility of (Z)-endoxifen; assay type: physicochemical; settings: for solubility: read-out: Solubility Z-form
Description: This example describes pH-dependent solubility of (Z)-endoxifen. (Z)-endoxifen was dissolved in solution under different pH conditions, and the solubility was measured. Since (Z)-endoxifen converts to the E-form under acidic conditions, the solubility of (Z)-endoxifen and (E)-endoxifen were measured independently, and a ratio of Z-form to E-form was determined.

[2] = Solubility of (Z)-endoxifen at pH 6.8 with and without Polysorbate 80; assay type: physicochemical
Description: This example describes development of a dissolution assay to measure dissolution of endoxifen formulations. Since solubility of endoxifen decreases as pH becomes less acidic, as shown in EXAMPLE 1, additional experiments were performed to improve solubility of endoxifen in the pH 6.8 buffer solution. Polysorbate 80 (PS80), a nonionic surfactant, was added in varying concentrations to improve solubility and mimic an intestinal environment. Surfactants, such as polysorbate 80, create micelles in the medium that mimic the bile acid aggregates in the small intestine. These micelles facilitate the diffusion and transport of product into the medium.

CC/C(=C(\c1ccc(O)cc1)c1ccc(OCCNC)cc1)c1ccccc1 [(Z)-endoxifen]
Z-form to E-form equilibration ([1]; pH 6.8): below the limit of detection
solubility ([1]; solution at pH 1.2, pH 1.2, simulated gastric fluid): 1050 µg/mL (≈ 2800 µM)
solubility ([1]; solution at pH 4.5, pH 4.5, aqueous buffer): 250 µg/mL (≈ 668 µM)
solubility ([1]; solution at pH 5.0, pH 5, aqueous buffer): 203 µg/mL (≈ 543 µM)
solubility ([1]; solution at pH 5.5, pH 5.5, aqueous buffer): 43.5 µg/mL (≈ 116 µM)
solubility ([1]; solution at pH 6.0, pH 6, aqueous buffer): 27.8 µg/mL (≈ 74.4 µM)
solubility ([1]; solution at pH 6.8, pH 6.8, aqueous buffer): 4.26 µg/mL (≈ 11.4 µM)
solubility ([1]; water): 0.78 µg/mL (≈ 2.09 µM)
solubility ([2]; aqueous buffer, pH 6.8 Buffer (Control), no Polysorbate 80): 8.14 µg/mL (≈ 21.8 µM)
solubility ([2]; pH 6.8 buffer with 0.5% Polysorbate 80, pH 6.8, aqueous with cosolvent or surfactant or cyclodextrin): 58.3 µg/mL (≈ 156 µM)
solubility ([2]; pH 6.8 buffer with 1.0% Polysorbate 80, pH 6.8, aqueous with cosolvent or surfactant or cyclodextrin): 62.1 µg/mL (≈ 166 µM)

Reference: US20250281414A1, “HIGH DOSE ENDOXIFEN FORMULATIONS AND METHODS OF USE” (Atossa Therapeutics, Inc., priority 2022, published 2025)
